The values below come from patent US9695154B2, “Heteroaryl inhibitors of sumo activating enzyme” (MILLENNIUM PHARMACEUTICALS, INC., priority 2013, dated 2017).

In the assay the target is T1, recombinant human SAE enzyme (Homo sapiens, UniProt Q9UBT2).
T1 sequence (Q9UBT2 1-640): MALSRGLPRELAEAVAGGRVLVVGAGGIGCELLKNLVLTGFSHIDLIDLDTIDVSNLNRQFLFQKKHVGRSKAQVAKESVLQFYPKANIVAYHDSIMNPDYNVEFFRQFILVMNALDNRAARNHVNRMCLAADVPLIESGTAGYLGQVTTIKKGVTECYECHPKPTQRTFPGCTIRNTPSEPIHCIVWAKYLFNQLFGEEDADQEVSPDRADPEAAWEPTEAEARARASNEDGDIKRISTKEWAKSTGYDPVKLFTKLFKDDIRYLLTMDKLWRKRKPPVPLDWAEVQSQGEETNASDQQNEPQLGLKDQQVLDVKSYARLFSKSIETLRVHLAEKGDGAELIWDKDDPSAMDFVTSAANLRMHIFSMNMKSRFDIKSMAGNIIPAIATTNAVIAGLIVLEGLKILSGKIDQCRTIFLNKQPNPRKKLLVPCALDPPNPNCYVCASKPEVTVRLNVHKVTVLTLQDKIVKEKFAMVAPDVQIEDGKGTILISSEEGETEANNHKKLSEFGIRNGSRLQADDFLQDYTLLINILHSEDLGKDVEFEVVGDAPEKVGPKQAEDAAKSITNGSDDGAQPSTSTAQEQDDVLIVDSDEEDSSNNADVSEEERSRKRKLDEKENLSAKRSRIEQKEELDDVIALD
T1 sequence (Q9UBE0 1-346 partner): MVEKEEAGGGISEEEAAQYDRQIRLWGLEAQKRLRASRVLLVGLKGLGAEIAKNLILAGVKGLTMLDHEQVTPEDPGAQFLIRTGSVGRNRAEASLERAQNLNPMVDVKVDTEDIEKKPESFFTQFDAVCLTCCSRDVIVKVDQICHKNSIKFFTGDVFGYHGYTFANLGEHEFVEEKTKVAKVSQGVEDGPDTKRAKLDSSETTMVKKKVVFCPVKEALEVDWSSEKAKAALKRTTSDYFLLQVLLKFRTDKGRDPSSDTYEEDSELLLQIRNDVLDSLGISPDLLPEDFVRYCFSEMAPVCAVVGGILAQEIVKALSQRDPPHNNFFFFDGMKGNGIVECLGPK
Briefly: SAE HTRF Enzyme Assay. Type of assay: biochemical. The settings on record: for IC50: class symbols A-C; for inhibition at 0.111 µM: compound concentration 0.111 μM, read-out: Percent Inhibition. The gist of the method:
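Sumoylation of Ubc9-GST by recombinant human SAE was followed by time-resolved FRET between Eu-cryptate anti-Flag and allophycocyanin anti-GST antibodies. The enzyme step used low ATP (0.5 μM) at pH 7.5 and ran 105 min at 24° C.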

As for `COCCn1ccc(C(=O)c2cncnc2N[C@@H]2C[C@H](COS(N)(=O)=O)[C@@H](O)C2)n1` [Compound I-305, {(1R,2S,4R)-2-hydroxy-4-[(5-{[1-(2-methoxyethyl)-1H-pyrazol-3-yl]carbonyl}pyrimidin-4-yl)amino]cyclopentyl}methyl sulfamate], the IC50 lay within 100 to 1000 nM and the inhibition at 0.111 µM came to 32%.
For `Cn1nc(Cn2ccc(C(=O)c3cncnc3N[C@@H]3C[C@H](COS(N)(=O)=O)[C@@H](O)C3)c2)cc1C(F)(F)F` [Compound I-306, [(1R,2S,4R)-2-hydroxy-4-({5-[(1-{[1-methyl-5-(trifluoromethyl)-1H-pyrazol-3-yl]methyl) 1H pyrrol-3-yl)carbonyl]pyrmidin-4-yl}amino)cyclopentyl]methyl sulfamate], the IC50 is less than 10 nM and the inhibition at 0.111 µM was 99%.
For `NS(=O)(=O)OC[C@H]1C[C@@H](Nc2ncncc2C(=O)c2ccn(Cc3cc(Cl)ccc3Cl)n2)[C@@H](F)[C@@H]1O` [Compound I-307, {(1R,2R,3R,4R)-4-[(5-{[1-(2,5-dichlorobenzyl)-1H-pyrazol-3-yl]carbonyl}pyrimidin-4-yl)amino]-3-fluoro-2-hydroxycyclopentyl}methyl sulfamate], in that order: less than 10 nM and 98%.
For `Cn1cc(C#CCn2ccc(C(=O)c3cncnc3N[C@@H]3C[C@H](COS(N)(=O)=O)[C@@H](O)C3)n2)cn1` [Compound I-308, [(1R,2S,4R)-2-hydroxy-4-{[5-({1-[3-(1-methyl-1H-pyrazol-4-yl)prop-2-yn-1-yl]-1H-pyrazol-3-yl}carbonyl)pyrimidin-4-yl]amino}cyclopentyl]methyl sulfamate], in that order: 100 to 1000 nM and 27%.
For `Cc1cc(C(=O)c2cncnc2N[C@@H]2C[C@H](COS(N)(=O)=O)[C@@H](O)C2)nn1Cc1cccc(Br)c1` [Compound I-309, {(1R,2S,4R)-4-[(5-{[1-(3-Bromobenzyl)-5-methyl-1H-pyrazol-3-yl]carbonyl}pyrimidin-4-yl)amino]-2-hydroxycyclopentyl}methyl sulfamate], in that order: less than 10 nM and 100%.
As to `NS(=O)(=O)OC[C@H]1C[C@@H](Nc2ncncc2C(=O)c2cc(Cl)n(Cc3cccc(I)c3)c2)[C@@H](F)[C@@H]1O` [Compound I-310, {(1R,2R,3R,4R)-4-[(5-{[5-chloro-1-(3-iodobenzyl)-1H-pyrrol-3-yl]carbonyl}pyrimidin-4-yl)amino]-3-fluoro-2-hydroxycyclopentyl}methyl sulfamate], the IC50 is less than 10 nM and the inhibition at 0.111 µM was 98%.
For `NS(=O)(=O)OC[C@H]1C[C@@H](Nc2ncncc2C(=O)c2ccn(Cc3ccc(Cl)c(Cl)c3)n2)[C@@H](F)[C@@H]1O` [Compound I-311, {(1R,2R,3R,4R)-4-[(5-{[1-(3,4-dichlorobenzyl)-1H-pyrazol-3-yl]carbonyl}pyrimidin-4-yl)amino]-3-fluoro-2-hydroxycyclopentyl}methyl sulfamate], in that order: less than 10 nM and 98%.
For `NS(=O)(=O)OC[C@H]1C[C@@H](Nc2ncncc2C(=O)c2ccn(Cc3cccc(Br)c3)c2)[C@@H](F)[C@@H]1O` [Compound I-312, {(1R,2R,3R,4R)-4-[(5-{[1-(3-bromobenzyl)-1H-pyrrol-3-yl]carbonyl}pyrimidin-4-yl)amino]-3-fluoro-2-hydroxycyclopentyl}methyl sulfamate], the IC50 is less than 10 nM and the inhibition at 0.111 µM came out at 99%.
Taken in the same sequence, the figures for `C=CC(=O)Nc1cccc(Cn2ccc(C(=O)c3cncnc3N[C@@H]3C[C@H](COS(N)(=O)=O)[C@@H](O)[C@H]3O)n2)c1` [Compound I-313, [(1R,2R,3S,4R)-4-{[5-({1-[3-(Acryloylamino)benzyl]-1H-pyrazol-3-yl}carbonyl)pyrimidin-4-yl]amino}-2,3-dihydroxycyclopentyl]methyl sulfamate] were less than 10 nM and 95%.
Taken in the same sequence, the figures for `NS(=O)(=O)OC[C@H]1C[C@@H](Nc2ncncc2C(=O)c2ccn(Cc3cc(F)c(F)cc3F)n2)[C@H](O)[C@@H]1O` [Compound I-314, {(1R,2R,3S,4R)-2,3-dihydroxy-4-[(5-{[1-(2,4,5-trifluorobenzyl)-1H-pyrazol-3-yl]carbonyl}pyrimidin-4-yl)amino]cyclopentyl}methyl sulfamate] were less than 10 nM and 97%.
For `NS(=O)(=O)OC[C@H]1C[C@@H](Nc2ncncc2C(=O)c2cc(C(F)(F)F)n(Cc3cccc(Cl)c3)n2)[C@@H](F)[C@@H]1O` [Compound I-316, {(1R,2R,3R,4R)-4-[(5-{[1-(3-Chlorobenzyl)-5-(trifluoromethyl)-1H-pyrazol-3-yl]carbonyl}pyrimidin-4-yl)amino]-3-fluoro-2-hydroxycyclopentyl}methyl sulfamate], in that order: less than 10 nM and 94%.
Consider `NS(=O)(=O)OC[C@H]1C[C@@H](Nc2ncncc2C(=O)c2ccn(Cc3ccccc3)n2)[C@@H](F)[C@@H]1O` [Compound I-317, [(1R,2R,3R,4R)-4-({5-[(1-Benzyl-1H-pyrazol-3-yl)carbonyl]pyrimidin-4-yl}amino)-3-fluoro-2-hydroxycyclopentyl]methyl sulfamate], for which the IC50 was less than 10 nM and the inhibition at 0.111 µM was 96%.
Take `NS(=O)(=O)OC[C@H]1C[C@@H](Nc2ncncc2C(=O)c2ccn(Cc3c(F)c(F)c(F)c(F)c3F)n2)[C@H](O)[C@@H]1O` [Compound I-318, {(1R,2R,3S,4R)-2,3-dihydroxy-4-[(5-{[1-(pentafluorobenzyl)-1H-pyrazol-3-yl]carbonyl}pyrimidin-4-yl)amino]cyclopentyl}methyl sulfamate]: the IC50 was less than 10 nM and the inhibition at 0.111 µM is 95%.
Taken in the same sequence, the figures for `NS(=O)(=O)OC[C@@H]1C[C@@H](Nc2ncncc2C(=O)c2ccn(Cc3cccc(Br)c3)c2)C[C@@H]1O` [Compound I-319, {(1S,2S,4R)-4-[(5-{[1-(3-Bromobenzyl)-1H-pyrrol-3-yl]carbonyl}pyrimidin-4-yl)amino]-2-hydroxycyclopentyl}methyl sulfamate] were less than 10 nM and 99%.
For `NS(=O)(=O)OC[C@H]1C[C@@H](Nc2ncncc2C(=O)c2cc(Cl)n(Cc3ccc(F)c(Br)c3)c2)[C@@H](F)[C@@H]1O` [Compound I-320, {(1R,2R,3R,4R)-4-[(5-{[1-(3-bromo-4-fluorobenzyl)-5-chloro-1H-pyrrol-3-yl]carbonyl}pyrimidin-4-yl)amino]-3-fluoro-2-hydroxycyclopentyl}methyl sulfamate], the IC50 is less than 10 nM and the inhibition at 0.111 µM is 98%.
Taken in the same sequence, the figures for `C=CS(=O)(=O)c1cccc(Cn2ccc(C(=O)c3cncnc3N[C@@H]3C[C@H](COS(N)(=O)=O)[C@@H](O)[C@H]3O)n2)c1` [Compound I-321, [(1R,2R,3S,4R)-2,3-Dihydroxy-4-{[5-({1-[3-(vinylsulfonyl)benzyl]-1H-pyrazol-3-yl}carbonyl)pyrimidin-4-yl]amino}cyclopentyl]methyl sulfamate] were 10 to 100 nM and 89%.
With `NS(=O)(=O)OC[C@H]1C[C@@H](Nc2ncncc2C(=O)c2ccn(Cc3cc4ccccc4s3)c2)[C@@H](F)[C@@H]1O` [Compound I-322, {(1R,2R,3R,4R)-4-[(5-{[1-(1-benzothiophen-2-ylmethyl)-1H-pyrrol-3-yl]carbonyl}pyrimidin-4-yl)amino]-3-fluoro-2-hydroxycyclopentyl}methyl sulfamate], the half-maximal inhibitory concentration (IC50) was less than 10 nM and the inhibition at 0.111 µM was 99%.
For `NS(=O)(=O)OC[C@H]1C[C@@H](Nc2ncncc2C(=O)c2ccn(Cc3cc(Br)ccn3)n2)[C@H](O)[C@@H]1O` [Compound I-324, [(1R,2R,3S,4R)-4-{[5-({1-[(4-bromopyridin-2-yl)methyl]-1H-pyrazol-3-yl}carbonyl)pyrimidin-4-yl]amino}-2,3-dihydroxycyclopentyl]methyl sulfamate], in that order: less than 10 nM and 100%.
For `COc1cccc(Cn2ccc(C(=O)c3cncnc3N[C@@H]3C[C@H](COS(N)(=O)=O)[C@@H](O)[C@H]3O)n2)c1` [Compound I-325, {(1R,2R,3S,4R)-2,3-dihydroxy-4-[(5-{[1-(3-methoxybenzyl)-1H-pyrazol-3-yl]carbonyl}pyrimidin-4-yl)amino]cyclopentyl}methyl sulfamate], in that order: less than 10 nM and 99%.
